Results taken from patent US8580832B2, “Substituted phenoxy aminothiazolones as estrogen related receptor-α modulators” (Janssen Pharmaceutica N.V., priority 2007, dated 2013).

What follows are compounds tested against T1, ERR1 (also known as ERR-α or ERR-1) (Homo sapiens, UniProt P11474) (assay: TR-FRET assay: disruption of co-activator peptide binding to ERR1 LBD). Details: 6His-tagged ERR1 LBD 6 nM, GST-SRC-2 peptide 6 nM, 25° C., 4-18 hours; average of 3 independent experiments.
T1 construct: the ^6His-tagged-ERR1 LBD
T1 sequence (P11474 193-421 limits assumed): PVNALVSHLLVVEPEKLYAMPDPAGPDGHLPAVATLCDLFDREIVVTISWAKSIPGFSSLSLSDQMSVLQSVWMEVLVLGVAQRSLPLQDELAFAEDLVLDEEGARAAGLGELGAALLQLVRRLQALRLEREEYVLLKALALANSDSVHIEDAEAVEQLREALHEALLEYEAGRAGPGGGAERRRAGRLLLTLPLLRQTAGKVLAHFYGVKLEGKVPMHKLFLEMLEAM
Format: biochemical
Procedure: Time-Resolved Fluorescence Resonance Energy Transfer (TR-FRET) experiments were performed to examine the functional response of ERR1 (also known as ERR-α or ERR-1) ligands. The TR-FRET assay described herein relied on the conformation of ERR1 for binding to a co-activator peptide: when a test compound binds to ERR1 and alters its conformation, it can disrupt the binding of the co-activator peptide. The components of this homogeneous secondary assay included: the ^6His-tagged-ERR1 LBD, a GST-labeled-hSRC2 co-activator polypeptide and a fluorescent donor/acceptor pair from CIS bio international htrf/bioassays (Bedford, Mass.) using both an α-GST Europium Cryptate (Eu) label and an α^6His-XL665 (allophycocyanin) fluorophore.
For TR-FRET measurements, the reaction was buffered in 25 mM Tris pH 8, 2.5 mM Hepes, 20 mM KCl, 1 mM DTT, and 0.05 mg/mL BSA (-lipids). […] Reactions were allowed to reach equilibrium at 25° C. for 4-18 hours before collecting data on the Analyst from LJL Biosystems (Molecular Devices Sunnyvale, Calif.). […] Dose response curves were fitted using a hyperbolic equation and the data reported is the average of 3 independent experiments.

In order of falling EC50:
1. CCOc1cc(/C=C2\SC(N(CCO)CCO)=NC2=O)ccc1Oc1ccc(C#N)cc1C(F)(F)F [Example 56, 4-(4-{2-[Bis-(2-hydroxy-ethyl)-amino]-4-oxo-4H-thiazol-5-ylidenemethyl}-2-ethoxy-phenoxy)-3-trifluoromethyl-benzonitrile]  150 nM
2. COc1cc(/C=C2\SC(N3CCNC(=O)C3)=NC2=O)ccc1Oc1ccc(C(F)(F)F)cc1C(F)(F)F [Example 59, 4-{5-[4-(2,4-Bis-trifluoromethyl-phenoxy)-3-methoxy-benzylidene]-4-oxo-4,5-dihydro-thiazol-2-yl}-piperazin-2-one]  140 nM
3. COc1cc(/C=C2\SC(N(C)CC(O)CO)=NC2=O)ccc1Oc1ccc(C#N)cc1Cl (stereo not shown) [Example 65, 3-Chloro-4-(4-{2-[(2,3-dihydroxy-propyl)-methyl-amino]-4-oxo-4H-thiazol-5-ylidenemethyl}-2-methoxy-phenoxy)-benzonitrile]  89 nM
4. COc1cc(/C=C2\SC(NCCN3CCCC3=O)=NC2=O)ccc1Oc1ccc(C#N)cc1Cl [Example 63, 3-Chloro-4-(2-methoxy-4-{4-oxo-2-[2-(2-oxo-pyrrolidin-1-yl)-ethylamino]-4H-thiazol-5-ylidenemethyl}-phenoxy)-benzonitrile]  75 nM
5. COC(=O)c1ccc(Oc2ccc(/C=C3\SC(N4CCNC(=O)C4)=NC3=O)cc2OC)c(C(F)(F)F)c1 [Example 54, 4-{2-Methoxy-4-[4-oxo-2-(3-oxo-piperazin-1-yl)-4H-thiazol-5-ylidenemethyl]-phenoxy}-3-trifluoromethyl-benzoic acid methyl ester]  74 nM
6. COc1cc(/C=C2\SC(N3CCNC(=O)C3)=NC2=O)ccc1Oc1ccc(C#N)cc1Cl [Example 64, 3-Chloro-4-{2-methoxy-4-[4-oxo-2-(3-oxo-piperazin-1-yl)-4H-thiazol-5-ylidenemethyl]-phenoxy}-benzonitrile]  44 nM
7. COC(=O)c1ccc(Oc2ccc(/C=C3\SC(N4CCCC(O)C4)=NC3=O)cc2OC)c(C(F)(F)F)c1 (stereo not shown) [Example 53, 4-{4-[2-(3-Hydroxy-piperidin-1-yl)-4-oxo-4H-thiazol-5-ylidenemethyl]-2-methoxy-phenoxy}-3-trifluoromethyl-benzoic acid methyl ester]  42 nM
8. CCOc1cc(/C=C2\SC(N3CCNC(=O)C3)=NC2=O)ccc1Oc1ccc(C#N)cc1C(F)(F)F [Example 57, 4-{2-Ethoxy-4-[4-oxo-2-(3-oxo-piperazin-1-yl)-4H-thiazol-5-ylidenemethyl]-phenoxy}-3-trifluoromethyl-benzonitrile]  39 nM
9. COc1cc(/C=C2\SC(NCC3CNCCO3)=NC2=O)ccc1Oc1ccc(C#N)cc1C(F)(F)F (stereo not shown) [Example 80, 4-(2-Methoxy-4-{2-[(morpholin-2-ylmethyl)-amino]-4-oxo-4H-thiazol-5-ylidenemethyl}-phenoxy)-3-trifluoromethyl-benzonitrile]  35 nM
10. COc1cc(/C=C2\SC(N(C)OC)=NC2=O)ccc1Oc1ccc(C#N)cc1C(F)(F)F [Example 75, 4-{2-Methoxy-4-[2-(methoxy-methyl-amino)-4-oxo-4H-thiazol-5-ylidenemethyl]-phenoxy}-3-trifluoromethyl-benzonitrile]  32 nM
11. COC(=O)C1CCN(C2=NC(=O)/C(=C/c3ccc(Oc4ccc(C#N)cc4C(F)(F)F)c(OC)c3)S2)CC1 [Example 79, 1-{5-[4-(4-Cyano-2-trifluoromethyl-phenoxy)-3-methoxy-benzylidene]-4-oxo-4,5-dihydro-thiazol-2-yl}-piperidine-4-carboxylic acid methyl ester]  25 nM
12. COc1cc(/C=C2\SC(N3CCCC(O)C3)=NC2=O)ccc1Oc1ccc(C(F)(F)F)cc1C(F)(F)F (stereo not shown) [Example 58, 5-[4-(2,4-Bis-trifluoromethyl-phenoxy)-3-methoxy-benzylidene]-2-(3-hydroxy-piperidin-1-yl)-thiazol-4-one]  24 nM
13. COc1cc(/C=C2\SC(NCCn3ccnc3)=NC2=O)ccc1Oc1ccc(C#N)cc1C(F)(F)F [Example 70, 4-{4-[2-(2-Imidazol-1-yl-ethylamino)-4-oxo-4H-thiazol-5-ylidenemethyl]-2-methoxy-phenoxy}-3-trifluoromethyl-benzonitrile]  24 nM
14. COC(=O)[C@H](CO)NC1=NC(=O)/C(=C/c2ccc(Oc3ccc(C#N)cc3C(F)(F)F)c(OC)c2)S1 [Example 68, 2-{5-[4-(4-Cyano-2-trifluoromethyl-phenoxy)-3-methoxy-benzylidene]-4-oxo-4,5-dihydro-thiazol-2-ylamino}-3-hydroxy-propionic acid methyl ester]  19 nM
15. COc1cc(/C=C2\SC(NCCOCCO)=NC2=O)ccc1Oc1ccc(C#N)cc1C(F)(F)F [Example 69, 4-(4-{2-[2-(2-Hydroxy-ethoxy)-ethylamino]-4-oxo-4H-thiazol-5-ylidenemethyl}-2-methoxy-phenoxy)-3-trifluoromethyl-benzonitrile]  17 nM
16. COc1cc(/C=C2\SC(NCCNC(N)=O)=NC2=O)ccc1Oc1ccc(C#N)cc1C(F)(F)F [Example 74, (2-{5-[4-(4-Cyano-2-trifluoromethyl-phenoxy)-3-methoxy-benzylidene]-4-oxo-4,5-dihydro-thiazol-2-ylamino}-ethyl)-urea]  17 nM
17. CCOc1cc(/C=C2\SC(N3CC(C(=O)O)C3)=NC2=O)ccc1Oc1ccc(C#N)cc1C(F)(F)F [Example 55, 1-{5-[4-(4-Cyano-2-trifluoromethyl-phenoxy)-3-ethoxy-benzylidene]-4-oxo-4,5-dihydro-thiazol-2-yl}-azetidine-3-carboxylic acid]  16 nM
18. COc1cc(/C=C2\SC(NCCn3cncn3)=NC2=O)ccc1Oc1ccc(C#N)cc1C(F)(F)F [Example 72, 4-{2-Methoxy-4-[4-oxo-2-(2-[1,2,4]triazol-1-yl-ethylamino)-4H-thiazol-5-ylidenemethyl]-phenoxy}-3-trifluoromethyl-benzonitrile]  16 nM
19. COc1cc(/C=C2\SC(NCC(=O)O)=NC2=O)ccc1Oc1ccc(C#N)cc1C(F)(F)F [Example 76, {5-[4-(4-Cyano-2-trifluoromethyl-phenoxy)-3-methoxy-benzylidene]-4-oxo-4,5-dihydro-thiazol-2-ylamino}-acetic acid]  16 nM
20. CNC1=NC(=O)/C(=C/c2ccc(Oc3ccc(C#N)cc3C(F)(F)F)c(OC)c2)S1 [Example 77, 4-[2-Methoxy-4-(2-methylamino-4-oxo-4H-thiazol-5-ylidenemethyl)-phenoxy]-3-trifluoromethyl-benzonitrile]  16 nM
21. COc1cc(/C=C2\SC(N3CCC(C(N)=O)CC3)=NC2=O)ccc1Oc1ccc(C#N)cc1C(F)(F)F [Example 78, 1-{5-[4-(4-Cyano-2-trifluoromethyl-phenoxy)-3-methoxy-benzylidene]-4-oxo-4,5-dihydro-thiazol-2-yl}-piperidine-4-carboxylic acid amide]  14 nM
22. COc1cc(/C=C2\SC(NCCNC(C)=O)=NC2=O)ccc1Oc1ccc(C#N)cc1C(F)(F)F [Example 71, N-(2-{5-[4-(4-Cyano-2-trifluoromethyl-phenoxy)-3-methoxy-benzylidene]-4-oxo-4,5-dihydro-thiazol-2-ylamino}-ethyl)-acetamide]  13 nM
23. COc1cc(/C=C2\SC(NCCC(=O)N3CCOCC3)=NC2=O)ccc1Oc1ccc(C#N)cc1C(F)(F)F [Example 73, 4-{2-Methoxy-4-[2-(3-morpholin-4-yl-3-oxo-propylamino)-4-oxo-4H-thiazol-5-ylidenemethyl]-phenoxy}-3-trifluoromethyl-benzonitrile]  13 nM
24. COc1cc(/C=C2\SC(NCCN3CCCC3=O)=NC2=O)ccc1Oc1ccc(Cl)cc1C(F)(F)F [Example 60, 5-[4-(4-Chloro-2-trifluoromethyl-phenoxy)-3-methoxy-benzylidene]-2-[2-(2-oxo-pyrrolidin-1-yl)-ethylamino]-thiazol-4-one]  4 nM
25. O=C1CN(C2=NC(=O)/C(=C/c3ccc(Oc4ccc(Cl)cc4C(F)(F)F)c(F)c3)S2)CCN1 [Example 66, 4-{5-[4-(4-Chloro-2-trifluoromethyl-phenoxy)-3-fluoro-benzylidene]-4-oxo-4,5-dihydro-thiazol-2-yl}-piperazin-2-one]  4 nM
26. COc1cc(/C=C2\SC(N(C)CC(O)CO)=NC2=O)ccc1Oc1ccc(Cl)cc1C(F)(F)F (stereo not shown) [Example 62, 5-[4-(4-Chloro-2-trifluoromethyl-phenoxy)-3-methoxy-benzylidene]-2-[(2,3-dihydroxy-propyl)-methyl-amino]-thiazol-4-one]  3 nM
27. O=C1N=C(NCCCN2CCCC2=O)S/C1=C\c1ccc(Oc2ccc(Cl)cc2C(F)(F)F)c(F)c1 [Example 67, 5-[4-(4-Chloro-2-trifluoromethyl-phenoxy)-3-fluoro-benzylidene]-2-[3-(2-oxo-pyrrolidin-1-yl)-propylamino]-thiazol-4-one]  3 nM
28. COc1cc(/C=C2\SC(N3CCNC(=O)C3)=NC2=O)ccc1Oc1ccc(Cl)cc1C(F)(F)F [Example 61, 4-{5-[4-(4-Chloro-2-trifluoromethyl-phenoxy)-3-methoxy-benzylidene]-4-oxo-4,5-dihydro-thiazol-2-yl}-piperazin-2-one]  1 nM
